Where two headings read alike, the source gives them in different places.
Columns and labels:
[1] = Solubility of salts in water (UPLC or gravimetry); type: physicochemical
Description: Acquity ultra performance liquid chromatography (UPLC) from Waters was used for solubility and stoichiometry determination. […] UPLC was equipped with Acquity PDA detector. UPLC mobile phase solvent A was 0.1% TFA in DI-water, solvent B was 0.1% TFA in acetonitrile.
Column temperature was 40±5° C. Acquity UPLC® HSS T3 1.8 μm, 2.1×50 mm column was used.
A known amount of sample was dissolved in water and analyzed by UPLC.

[2] = Biopharmaceutics Classification System classification; type: physicochemical
Source text: An immediate-release, film-coated 10-mg tablet was developed for the phase 3 clinical trials and commercialization of Compound 1 (Example 5).

[3] = Dynamic moisture-sorption (DMS); type: physicochemical; settings: for hygroscopicity by DMS: isotherm 25° C.; for DMS weight gain at 90% RH: out to and including the 90% RH hold at 25° C.
Description: Dynamic moisture-sorption (DMS) studies were conducted using a dynamic moisture-sorption analyzer, VTI Corporation, SGA-100, equipment #0228. Samples were prepared for DMS analysis by placing 5 mg to 20 mg of a sample in a tared sample holder. The sample was placed on the hang-down wire of the VTI balance. A drying step was run, typically at 40° C. and 0.5-1% RH for 1-2 h. The isotherm temperature is 25° C. Defined % RH holds typically ranged from 10% RH to 90% RH or 95% RH, with intervals of 10 to 20% RH. A % weight change smaller than 0.010% over a specified number of minutes (typically 10-20), or up to 2 h, whichever occurs first, is required before continuing to the next % RH hold. The water content of the sample equilibrated as described above was determined at each % RH hold.

[4] = Deliquescence relative humidity (DRH) by water activity meter; type: physicochemical; settings: saturated aqueous solution with excess solid, 25° C.
[5] = 26-day body weight study, oral gavage versus osmotic minipump; type: in vivo, male Sprague Dawley rats
Description: 30 male Sprague Dawley rats weighing 275-320 g were singly housed and maintained on a 12 h:12 h light-dark cycle (lights on at 23:00 h). Food and water were available ad libitum at all times except during the first day after pump implantation (see below). All rats were habituated to injection and handling procedures for one week prior to study onset.
For the purposes of dose calculation each rat was assumed to weigh 320 g at the start of the study. Rats receiving Compound 1 hydrochloride salt PO were given a fixed daily dose of 7.68 mg, whereas rats in the pump group received a total fixed daily dose of 4.84 mg (for calculations see Example 2.1).
Osmotic minipumps (Alzet® model 2ML4, Durect Corp, CA) were filled with either vehicle (0.9% saline, n=20), or Compound 1 hydrochloride salt solutions and submerged overnight in a 0.9% saline solution to reach equilibrium. […] All subjects were then implanted with the minipumps. Briefly, under isoflourane anaesthesia the nape of the neck was shaved, a mid-scapular incision was made and a subcutaneous pocket was created for the minipump. A minipump was then inserted into the pocket and the incision was closed using surgical staples. Rats were then returned to homecage for recovery. Rats in VEH and PO groups received pumps primed with vehicle; whereas rats in the PUMP group received Compound 1 hydrochloride salt-filled pumps. Because steady state levels of Compound 1 in vivo in the PUMP group were not predicted to be reached until at least 24 h post-implantation, food was removed from all rats for approximately one day after surgery. At 10:30 h the next day (Day 1) and for all subsequent days, food and body weight was measured for all subjects, and all subjects were administered either saline (for VEH and PUMP groups), or Compound 1 hydrochloride salt (PO group) via oral gavage. Food intake and body weight were measured for a total of 26 days.

[6] = chronic twice-daily oral administration, high fat diet, 4-week study; cited from earlier work
[7] = Appearance on exposure to light; type: physicochemical; settings: solid removed from the slurry
[8] = water, thermodynamic from solid, by UPLC, read-out: solubility in water

C[C@H]1CNCCc2ccc(Cl)cc21.C[C@H]1CNCCc2ccc(Cl)cc21.Cl.Cl.O
solubility ([1]; pH range of 1 to 7): exceeds 400 mg/mL
Biopharmaceutics Classification System solubility class [2]: highly soluble

C[C@H]1CNCCc2ccc(Cl)cc21.O=C(O)/C=C/C(=O)O [Compound 1 fumarate salt]
solubility [1, 8]: 4800 µg/mL
hygroscopicity by DMS ([3]; listed as Compound 1 Fumarate Salt, Form I, fumarate salt): FIG. 13: non-hygroscopic up to 90% RH
hygroscopicity by DMS ([3]; listed as Compound 1 fumarate salt, Form I, fumarate salt): non-hygroscopic
DRH (deliquescence relative humidity) [4]: 99 % RH

C[C@H]1CNCCc2ccc(Cl)cc21.C[C@H]1CNCCc2ccc(Cl)cc21.O=S(=O)(O)c1cccc2c(S(=O)(=O)O)cccc12 [Compound 1 heminapadisilate salt]
solubility in water ([1]; by UPLC): 2370 µg/mL

C[C@H]1CNCCc2ccc(Cl)cc21.C[C@H]1CNCCc2ccc(Cl)cc21.O.O=C(O)c1cc2ccccc2c(Cc2c(O)c(C(=O)O)cc3ccccc23)c1O [Compound 1 hemipamoate salt hydrate]
solubility in water ([1]; by UPLC): 24 µg/mL
hygroscopicity by DMS [3]: slightly hygroscopic
DMS weight gain at 90% RH ([3]; listed as Compound 1 Hemipamoate Salt Hydrate, Form I, hydrate): FIG. 41: ~1.472% weight gain at about 90% RH
DMS weight gain at 90% RH ([3]; listed as Compound 1 hemipamoate salt hydrate, Form I, hydrate): about 1.472%

C[C@H]1CNCCc2ccc(Cl)cc21.Cl [Compound 1 hydrochloride salt]
body weight gain, PUMP group compared to PO group ([5]; 26 days, p=0.0501, slopes differ p<0.01): lower weight gain in the PUMP group than in the PO group
body weight gain over 26 days compared to saline ([5]; oral gavage once daily, 24 mg/kg/day (fixed 7.68 mg)): significantly decreased
body weight gain over 26 days compared to saline ([5]; osmotic minipump, 15.1 mg/kg/day (fixed 4.84 mg)): significantly decreased
food intake and body weight gain [6]: dose-dependent reductions in food intake and body weight gain

C[C@H]1CNCCc2ccc(Cl)cc21.I [Compound 1 hydroiodide salt]
solubility ([1]; water, thermodynamic from solid, 27° C., by gravimetry (confirmed by UPLC), read-out: solubility in water): 5500 µg/mL
hygroscopicity by DMS ([3]; Form I, hydroiodide salt): FIG. 7: non-hygroscopic
hygroscopicity by DMS ([3]; hydroiodide salt): non-hygroscopic
DRH (deliquescence relative humidity) [4]: 99 % RH
colour change on exposure to light [7]: did yellow noticeably within hours when exposed to light

C[C@H]1CNCCc2ccc(Cl)cc21.O=C(O)/C=C\C(=O)O [Compound 1 maleate salt]
solubility [1, 8]: 33000 µg/mL
hygroscopicity by DMS [3]: not hygroscopic
DMS weight gain at 90% RH ([3]; maleate salt): 0.15%
DRH (deliquescence relative humidity) [4]: 99 % RH
